Assay results as given in patent EP2966448B1, “METHOD FOR THE PREDICTION OR PROGNOSIS OF THE RESPONSE OF A HUMAN SUBJECT SUFFERING FROM CANCER TO TREATMENT WITH AN ANTAGONIST OF THE NK1 RECEPTOR” (priority 2013, dated 2014).
Like-named read-outs stand apart in the source and are kept apart here.

Columns and labels:
[1] = system: Gastric carcinoma (Adenocarcinoma); test: Inhibition of primary tumor cell cultures vs Kras mutation (Example 2); assay type: cell-based, human; conditions: Homo sapiens, 100 micromolar, read-out: Percentage of inhibition of cell cultures
Protocol: Cell cultures. […] Briefly, small pieces of the tumors were digested into a hyaluronidase solution (Sigma-Aldrich, USA) at a concentration of 1 mg/ml during 15 minutes at 37°C, and then they were treated with 6 mg/ml of collagenase type IV (Invitrogen) during 2 hours at 37°C. Consecutively, cells were washed, and resuspended in the DMEM culture medium with high concentration of glucose (Dulbecco's Modified Eagle's Medium, Invitrogen) supplemented with 1% of antibiotics-antimycotics (Invitrogen) and with 1% of sodium pyruvate (Invitrogen), and the cells were seeded in culture slides at a concentration of 10.000 cells per square centimeter. When cells reached confluence, the adherent cells were separated using sterile trypsin at 0,5% (Invitrogen) and they were used among passages 3 and 9. For the assays shown next, tumor cells were seeded on slides at a concentration of 25.000 cells per well. A total of 6 wells containing the tumor cells were used as survival control. […] All the cultures were kept during 48 hours and later on recollected for their analysis.
(§1) In each case the presence or not of mutations in K-ras gene was determined.
(§2) To determine the existence of mutations in the K-ras gene DNA from cancer tumor cells was extracted from samples obtained from the different cancer tumor cells, using DNA extraction kits from Takara (Madison, WI, US) or Ambion (Huntingdon, Cambridgeshire, United Kingdom), following the manufacturer's instructions, and as it has been previously published (Di Fiore F, et al. 2007). Consecutively it was analyzed by sequencing the exon 2 of the KRAS gene, , by means of PCR amplification from previously extracted cancer tumor DNA, using the following sense primer (SEQ ID NO. 15): 5'-[sequence]-3' and anti-sense primer (SEQ ID NO. 16): 5'-[sequence]-3'. After the purification using the Qiagen extraction kit, the PCR products were sequenced using the Big Dye Terminator Kit V3.1 (Applied Biosystems, Foster City, CA, U.S.) and an ABI Prism 377 or 3100 DNA sequencer (Applied Biosystems). The presence of a heterozygous mutation in the KRAS gene in cancer tumor cells of the cultures was defined as the appearance of a mutant peak of a height of at least a third of the wild type. All the sequence analysis were executed at least twice in two independent PCR.
(§3) The antibody against NK1 receptor (Table 16) was used at 1/50 concentration. The percentages of inhibition are expressed in percentage of variation in relation to control ± standard deviation.

Breast carcinoma = test: Inhibition of primary tumor cell cultures (48 hours) vs NK1 receptor immunostaining (Example 1); assay type: cell-based; conditions: Homo sapiens, 1 micromolar, read-out: Percentage of inhibition of cell cultures
Protocol: (§4) Cell cultures. To obtain tumor cells from human primary tumors we used the method described in De Bari et al. (De Bari et al. 2001). Briefly, small pieces of the tumors were digested into a hyaluronidase solution (Sigma-Aldrich, USA) at a concentration of 1 mg/ml during 15 minutes at 37°C, and then they were treated with 6 mg/ml of collagenase type IV (Invitrogen) during 2 hours at 37°C. Consecutively, cells were washed, and resuspended in the DMEM culture medium with high concentration of glucose (Dulbecco's Modified Eagle's Medium, Invitrogen) supplemented with 1% of antibiotics-antimycotics (Invitrogen) and with 1% of sodium pyruvate (Invitrogen), and the cells were seeded in culture slides at a concentration of 10.000 cells per square centimeter. When cells reached confluence, the adherent cells were separated using sterile trypsin at 0,5% (Invitrogen) and they were used among passages 3 and 9. For the assays shown next, tumor cells were seeded on slides at a concentration of 25.000 cells per well. A total of 6 wells containing the tumor cells were used as survival control. […] All the cultures were kept during 48 hours and later on recollected for their analysis.
(§5) Immunohistochemistry techniques. The presence of NK1 receptors was also analyzed using immunohistochemistry techniques. Briefly, a sample of each of the cultures of the cell lines used in the present invention, was centrifuged (5 minutes at 1.500 rpm) and the pellet obtained was dehydrated using increasing concentrations of ethanol and, finally, xylol. Then, said dehydrated samples were embedded in paraffin, creating a block of cells. Such paraffin blocks were cut with a microtome at 5 microns thickness, and were placed on microscope slides adequate to perform immunohistochemistry techniques. Consecutively, they were de-paraffinized by immersing them in xylol, to be finally hydrated using a solution containing decreasing concentrations of ethanol, and finally submerged them into water. […] After this, the samples were left to cool down at room temperature for 10 minutes. The endogenous peroxidase activity was blocked with 3% peroxide of hydrogen for 30 minutes at room temperature. After washing the samples with 0.05 M of Tris buffer, they were incubated with 10% non-immune pork serum at for 30 minutes at room temperature. To analyze the expression of NK1 receptors, the cellular samples were incubated in the presence of anti-NK1 antibodies (S8305, Sigma-Aldrich) diluted 1:1000, overnight at 4°C. Afterwards, the samples were washed in Tris buffer 0.05 M at room temperature. The next step was the addition of Envision System-HRP (Dako) reagents for 30 minutes at room temperature. Then, the samples were washed again in Tris buffer 0.05 M and the immunoreactivity was visualized through light microscopy with a chromogenic solution containing 3,3'-Diaminobenzidine (DAB+; Dako, USA). To differentiate the cell nuclei, they were slightly stained with hematoxylin. As negative control, it was used samples not incubated with the primary antibody anti-NK1, which was replaced by non-immune serum. All the samples were evaluated.
(§6) To value the immunostaining in each of the cases six cuts were performed to be analyzed by the immunohistochemistry technique. In each of the six cuts, it was counted cells in 20 fields (magnification 400x) using an Olympus microscope (model CX31). In each field it was counted the total number of cells and the number of cells presenting immunostaining, calculating afterwards the percentage of cells which presented immunostaining.

[2] = system: Undifferentiated Pleomorphic Sarcoma (malignant fibrous histiocytoma grade 3); test: Inhibition of primary tumor cell cultures vs Kras mutation (Example 2); assay type: cell-based, human; conditions: Homo sapiens, 100 micromolar, read-out: Percentage of inhibition of cell cultures
Protocol: as §4, §1, §2
(§7) The percentages of inhibition are expressed in percentage of variation in relation to control ± standard deviation.

Gastric carcinoma = test: Inhibition of primary tumor cell cultures (48 hours) vs NK1 receptor immunostaining (Example 1); assay type: cell-based; conditions: Homo sapiens, 1 micromolar, read-out: Percentage of inhibition of cell cultures
Protocol: as §4, §5, §6

Prostate carcinoma [3] = test: cells; conditions: Homo sapiens, 1 micromolar
Protocol: as §4, §5, §6

[4] = system: Melanoma (Nodular Melanoma); test: Inhibition of primary tumor cell cultures vs Kras mutation (Example 2); assay type: cell-based, human; conditions: Homo sapiens, 100 micromolar, read-out: Percentage of inhibition of cell cultures
Protocol: as §4, §1, §2, §7

[5] = system: Thyroid carcinoma (papillary carcinoma); test: as above; assay type: cell-based, human; conditions: Homo sapiens, 100 micromolar, read-out: Percentage of inhibition of cell cultures
Protocol: To obtain tumor cells from human primary tumors we used the method described in De Bari et al. (De Bari et al. 2001). Briefly, small pieces of the tumors were digested into a hyaluronidase solution (Sigma-Aldrich, USA) at a concentration of 1 mg/ml during 15 minutes at 37°C, and then they were treated with 6 mg/ml of collagenase type IV (Invitrogen) during 2 hours at 37°C. Consecutively, cells were washed, and resuspended in the DMEM culture medium with high concentration of glucose (Dulbecco's Modified Eagle's Medium, Invitrogen) supplemented with 1% of antibiotics-antimycotics (Invitrogen) and with 1% of sodium pyruvate (Invitrogen), and the cells were seeded in culture slides at a concentration of 10.000 cells per square centimeter. When cells reached confluence, the adherent cells were separated using sterile trypsin at 0,5% (Invitrogen) and they were used among passages 3 and 9. For the assays shown next, tumor cells were seeded on slides at a concentration of 25.000 cells per well. A total of 6 wells containing the tumor cells were used as survival control. […] All the cultures were kept during 48 hours and later on recollected for their analysis.
as §1, §2, §3

Renal cell carcinoma = test: Inhibition of primary tumor cell cultures (48 hours) vs NK1 receptor immunostaining (Example 1); assay type: cell-based; conditions: Homo sapiens, 1 micromolar, read-out: Percentage of inhibition of cell cultures
Protocol: as §4, §5, §6

Neuroblastoma = test: as above; assay type: cell-based; conditions: Homo sapiens, 1 micromolar, read-out: Percentage of inhibition of cell cultures
Protocol: as §4, §5, §6

Prostate carcinoma [6] = test: Inhibition of primary tumor cell cultures vs Kras mutation (Example 2); assay type: cell-based, human; conditions: Homo sapiens, 100 micromolar, read-out: Percentage of inhibition of cell cultures
Protocol: as §4, §1, §2, §7

[7] = system: human primary tumor cells; test: Inhibition of primary tumor cell cultures vs amplification of the gene encoding the NK1 receptor (Example 6; tumor type per table line); assay type: cell-based; conditions: 100 micromolar
[8] = Cases with Kras non-mutated (wild type)
[9] = NK1 receptor immunostaining Group 1 (less than 20% of the cells)
[10] = NK1 receptor immunostaining Group 2 (20-80% of the cells)
[11] = NK1 receptor immunostaining Group 3 (more than 80% of the cells)
[12] = NK1 receptor immunostaining Intensity grade 1
[13] = NK1 receptor immunostaining Intensity grade 2
[14] = NK1 receptor immunostaining Intensity grade 3

CC(=O)N1CCN([C@H]2CCN(C(=O)N(C)[C@H](C)c3cc(C(F)(F)F)cc(C(F)(F)F)c3)[C@@H](c3ccc(F)cc3C)C2)CC1 [Casopitant]
inhibition at 100 µM ([1]; Cases with Kras mutated): 25 ± 5% | inhibition at 100 µM [1, 8]: 95 ± 5% | inhibition at 1 µM (Breast carcinoma; [9]): 15 ± 3% | inhibition at 1 µM (Breast carcinoma; [10]): 47 ± 4% | inhibition at 1 µM (Breast carcinoma; [11]): 92 ± 3% | inhibition at 1 µM (Breast carcinoma; [12]): 35 ± 3% | inhibition at 1 µM (Breast carcinoma; [13]): 56 ± 6% | inhibition at 1 µM (Breast carcinoma; [14]): 92 ± 2% | inhibition at 100 µM ([2]; Cases with Kras mutated): 26 ± 5% | inhibition at 100 µM [2, 8]: 95 ± 5% | inhibition at 1 µM (Gastric carcinoma; [9]): 12 ± 4% | inhibition at 1 µM (Gastric carcinoma; [10]): 46 ± 2% | inhibition at 1 µM (Gastric carcinoma; [11]): 90 ± 2% | inhibition at 1 µM (Gastric carcinoma; [12]): 31 ± 3% | inhibition at 1 µM (Gastric carcinoma; [13]): 53 ± 3% | inhibition at 1 µM (Gastric carcinoma; [14]): 91 ± 3% | inhibition at 1 µM (Prostate carcinoma [3]; read-out: Percentage of inhibition of cell cultures, NK1 receptor immunostaining Group 1 (less than 20% of the cells)): 16 ± 2% | inhibition at 1 µM (Prostate carcinoma [3]; read-out: Percentage of inhibition of cell cultures, NK1 receptor immunostaining Group 2 (20-80% of the cells)): 45 ± 4% | inhibition at 1 µM (Prostate carcinoma [3]; read-out: Percentage of inhibition of cell cultures, NK1 receptor immunostaining Group 3 (more than 80% of the cells)): 93 ± 4% | inhibition at 1 µM (Prostate carcinoma [3]; read-out: Percentage of inhibition of cell cultures, NK1 receptor immunostaining Intensity grade 1): 33 ± 5% | inhibition at 1 µM (Prostate carcinoma [3]; read-out: Percentage of inhibition of cell cultures, NK1 receptor immunostaining Intensity grade 2): 53 ± 3% | inhibition at 1 µM (Prostate carcinoma [3]; read-out: Percentage of inhibition of cell cultures, NK1 receptor immunostaining Intensity grade 3): 94 ± 2% | inhibition at 100 µM ([4]; Cases with Kras mutated): 25 ± 6% | inhibition at 100 µM [4, 8]: 94 ± 6% | inhibition at 100 µM ([5]; Cases with Kras mutated): 24 ± 5% | inhibition at 100 µM [5, 8]: 94 ± 5% | inhibition at 1 µM (Renal cell carcinoma; [9]): 16 ± 4% | inhibition at 1 µM (Renal cell carcinoma; [10]): 46 ± 3% | inhibition at 1 µM (Renal cell carcinoma; [11]): 91 ± 5% | inhibition at 1 µM (Renal cell carcinoma; [12]): 34 ± 2% | inhibition at 1 µM (Renal cell carcinoma; [13]): 55 ± 5% | inhibition at 1 µM (Renal cell carcinoma; [14]): 91 ± 4% | inhibition at 1 µM (Neuroblastoma; [9]): 16 ± 2% | inhibition at 1 µM (Neuroblastoma; [10]): 45 ± 4% | inhibition at 1 µM (Neuroblastoma; [11]): 94 ± 4% | inhibition at 1 µM (Neuroblastoma; [12]): 35 ± 4% | inhibition at 1 µM (Neuroblastoma; [13]): 55 ± 5% | inhibition at 1 µM (Neuroblastoma; [14]): 94 ± 4% | inhibition at 100 µM (Prostate carcinoma [6]; Cases with Kras mutated): 23 ± 3% | inhibition at 100 µM (Prostate carcinoma [6]; [8]): 93 ± 7% | Percentage of inhibition of cell cultures ([7]; Breast carcinoma (ductal adenocarcinoma), Cases with amplification of the gene that encodes for the NK1 receptor): 94±7 percentage | Percentage of inhibition of cell cultures ([7]; Breast carcinoma (ductal adenocarcinoma), Cases without amplification of the gene that encodes for the NK1 receptor): 23±8 percentage | Percentage of inhibition of cell cultures ([7]; Burkitt Lymphoma, Cases with amplification of the gene that encodes for the NK1 receptor): 93±6 percentage | Percentage of inhibition of cell cultures ([7]; Burkitt Lymphoma, Cases without amplification of the gene that encodes for the NK1 receptor): 24±5 percentage | Percentage of inhibition of cell cultures ([7]; Carcinoma of the uterine cervix (Squamous cell carcinoma), Cases with amplification of the gene that encodes for the NK1 receptor): 94±6 percentage | Percentage of inhibition of cell cultures ([7]; Carcinoma of the uterine cervix (Squamous cell carcinoma), Cases without amplification of the gene that encodes for the NK1 receptor): 23±6 percentage | Percentage of inhibition of cell cultures ([7]; Colon carcinoma (Adenocarcinoma), Cases with amplification of the gene that encodes for the NK1 receptor): 96±4 percentage | Percentage of inhibition of cell cultures ([7]; Colon carcinoma (Adenocarcinoma), Cases without amplification of the gene that encodes for the NK1 receptor): 24±4 percentage | Percentage of inhibition of cell cultures ([7]; Endometrium carcinoma, Cases with amplification of the gene that encodes for the NK1 receptor): 96±5 percentage | Percentage of inhibition of cell cultures ([7]; Endometrium carcinoma, Cases without amplification of the gene that encodes for the NK1 receptor): 24±4 percentage | Percentage of inhibition of cell cultures ([7]; Gastric carcinoma (Adenocarcinoma), Cases with amplification of the gene that encodes for the NK1 receptor): 95±5 percentage | Percentage of inhibition of cell cultures ([7]; Gastric carcinoma (Adenocarcinoma), Cases without amplification of the gene that encodes for the NK1 receptor): 23±5 percentage | Percentage of inhibition of cell cultures ([7]; Glioma (astrocytoma), Cases with amplification of the gene that encodes for the NK1 receptor): 95±4 percentage | Percentage of inhibition of cell cultures ([7]; Glioma (astrocytoma), Cases without amplification of the gene that encodes for the NK1 receptor): 24±6 percentage | Percentage of inhibition of cell cultures ([7]; Lung carcinoma (non small cell lung carcinoma), Cases with amplification of the gene that encodes for the NK1 receptor): 96±5 percentage | Percentage of inhibition of cell cultures ([7]; Lung carcinoma (non small cell lung carcinoma), Cases without amplification of the gene that encodes for the NK1 receptor): 26±6 percentage | Percentage of inhibition of cell cultures ([7]; Lung carcinoma (small cell lung carcinoma), Cases with amplification of the gene that encodes for the NK1 receptor): 95±4 percentage | Percentage of inhibition of cell cultures ([7]; Lung carcinoma (small cell lung carcinoma), Cases without amplification of the gene that encodes for the NK1 receptor): 24±4 percentage | Percentage of inhibition of cell cultures ([7]; Melanoma (Nodular Melanoma), Cases with amplification of the gene that encodes for the NK1 receptor): 97±5 percentage | Percentage of inhibition of cell cultures ([7]; Melanoma (Nodular Melanoma), Cases without amplification of the gene that encodes for the NK1 receptor): 26±4 percentage | Percentage of inhibition of cell cultures ([7]; Non Hodgkin Lymphoma B (diffuse B cell lymphoma), Cases with amplification of the gene that encodes for the NK1 receptor): 95±7 percentage | Percentage of inhibition of cell cultures ([7]; Non Hodgkin Lymphoma B (diffuse B cell lymphoma), Cases without amplification of the gene that encodes for the NK1 receptor): 27±5 percentage | Percentage of inhibition of cell cultures ([7]; Non Hodgkin Lymphoma T (diffuse T cell lymphoma), Cases with amplification of the gene that encodes for the NK1 receptor): 95±5 percentage | Percentage of inhibition of cell cultures ([7]; Non Hodgkin Lymphoma T (diffuse T cell lymphoma), Cases without amplification of the gene that encodes for the NK1 receptor): 28±7 percentage | Percentage of inhibition of cell cultures ([7]; Ovarian carcinoma(Adenocarcinoma), Cases with amplification of the gene that encodes for the NK1 receptor): 95±4 percentage | Percentage of inhibition of cell cultures ([7]; Ovarian carcinoma(Adenocarcinoma), Cases without amplification of the gene that encodes for the NK1 receptor): 24±5 percentage | Percentage of inhibition of cell cultures ([7]; Pancreatic carcinoma (Adenocarcinoma), Cases with amplification of the gene that encodes for the NK1 receptor): 97±5 percentage | Percentage of inhibition of cell cultures ([7]; Pancreatic carcinoma (Adenocarcinoma), Cases without amplification of the gene that encodes for the NK1 receptor): 26±6 percentage | Percentage of inhibition of cell cultures ([7]; Prostate carcinoma, Cases with amplification of the gene that encodes for the NK1 receptor): 96±5 percentage | Percentage of inhibition of cell cultures ([7]; Prostate carcinoma, Cases without amplification of the gene that encodes for the NK1 receptor): 27±5 percentage | Percentage of inhibition of cell cultures ([7]; Renal cell carcinoma (clear cell renal cell carcinoma), Cases with amplification of the gene that encodes for the NK1 receptor): 93±6 percentage | Percentage of inhibition of cell cultures ([7]; Renal cell carcinoma (clear cell renal cell carcinoma), Cases without amplification of the gene that encodes for the NK1 receptor): 27±7 percentage | Percentage of inhibition of cell cultures ([7]; Thyroid carcinoma (follicular carcinoma), Cases with amplification of the gene that encodes for the NK1 receptor): 94±6 percentage | Percentage of inhibition of cell cultures ([7]; Thyroid carcinoma (follicular carcinoma), Cases without amplification of the gene that encodes for the NK1 receptor): 26±5 percentage | Percentage of inhibition of cell cultures ([7]; Thyroid carcinoma (papillary carcinoma), Cases with amplification of the gene that encodes for the NK1 receptor): 96±5 percentage | Percentage of inhibition of cell cultures ([7]; Thyroid carcinoma (papillary carcinoma), Cases without amplification of the gene that encodes for the NK1 receptor): 24±7 percentage | Percentage of inhibition of cell cultures ([7]; Undifferentiated Pleomorphic Sarcoma (malignant fibrous histiocytoma grade 3), Cases with amplification of the gene that encodes for the NK1 receptor): 96±6 percentage
